How the values were obtained:
HGFR = HGFR (Homo sapiens, UniProt P08581); test: Mobility shift assay, HGFR kinase inhibition; type: biochemical; settings: mean of two independent experiments
Experimental: (§1) Kinase inhibitory activity against HGFR, MST1R, ABL, PDGFRβ, AXL, FLT3, RET, c-Src, and VEGFR-2 was evaluated by the mobility shift assay. Detailed operation could be found in our previous research.

HCT-116 cells = test: MTT assay, cytotoxic activity against HCT-116; type: cell-based; settings: Homo sapiens, average of three separate determinations, SD shown
Text: (§2) Taking lead compound BC2021-104511-15i, Fruquintinib and Regorafenib as positive controls, the cytotoxic activity against HT-29, HCT-116, COLO-205 and FHC cell lines by MTT assay. Detailed operation could be found in our previous study.

MST1R = MST1R (Homo sapiens, UniProt Q04912); test: Mobility shift assay, MST1R kinase inhibition; type: biochemical; settings: mean of two independent experiments
Experimental: as §1

COLO 205 cells = test: MTT assay, cytotoxic activity against COLO 205; type: cell-based; settings: MTT, average of three separate determinations, SD shown
Text: as §2

HT-29 cells = test: MTT assay, cytotoxic activity against HT-29; type: cell-based, human; settings: SD shown
Text: as §2

[1] = MTT assay, cytotoxicity against FHC cells; type: cell-based; settings: FHC cells (normal colorectal mucosa epithelial cells); human normal colorectal mucosa epithelial cells; average of three separate determinations
Experimental: In order to investigate the cell selectivity index, the cytotoxicity of potent compounds against human normal colorectal mucosa epithelial cell FHC cells was determined.
as §2

c-Src = c-Src (Homo sapiens, UniProt P12931); test: Mobility shift assay, c-Src; type: biochemical; settings: mean of two independent experiments, SD shown
Experimental: as §1

VEGFR-2 = VEGFR-2 (Homo sapiens, UniProt P35968); test: Mobility shift assay, VEGFR-2; type: biochemical; settings: mean of two independent experiments, SD shown
Experimental: as §1

PDGFRβ = PDGFRβ (Homo sapiens, UniProt P09619); test: Mobility shift assay, PDGFRβ; type: biochemical; settings: mean of two independent experiments, SD shown
Experimental: as §1

AXL = molecular target: T1, AXL (Homo sapiens, UniProt P30530); test: Mobility shift assay, AXL; type: biochemical; settings: mean of two independent experiments, SD shown
T1 sequence (P30530 26-894): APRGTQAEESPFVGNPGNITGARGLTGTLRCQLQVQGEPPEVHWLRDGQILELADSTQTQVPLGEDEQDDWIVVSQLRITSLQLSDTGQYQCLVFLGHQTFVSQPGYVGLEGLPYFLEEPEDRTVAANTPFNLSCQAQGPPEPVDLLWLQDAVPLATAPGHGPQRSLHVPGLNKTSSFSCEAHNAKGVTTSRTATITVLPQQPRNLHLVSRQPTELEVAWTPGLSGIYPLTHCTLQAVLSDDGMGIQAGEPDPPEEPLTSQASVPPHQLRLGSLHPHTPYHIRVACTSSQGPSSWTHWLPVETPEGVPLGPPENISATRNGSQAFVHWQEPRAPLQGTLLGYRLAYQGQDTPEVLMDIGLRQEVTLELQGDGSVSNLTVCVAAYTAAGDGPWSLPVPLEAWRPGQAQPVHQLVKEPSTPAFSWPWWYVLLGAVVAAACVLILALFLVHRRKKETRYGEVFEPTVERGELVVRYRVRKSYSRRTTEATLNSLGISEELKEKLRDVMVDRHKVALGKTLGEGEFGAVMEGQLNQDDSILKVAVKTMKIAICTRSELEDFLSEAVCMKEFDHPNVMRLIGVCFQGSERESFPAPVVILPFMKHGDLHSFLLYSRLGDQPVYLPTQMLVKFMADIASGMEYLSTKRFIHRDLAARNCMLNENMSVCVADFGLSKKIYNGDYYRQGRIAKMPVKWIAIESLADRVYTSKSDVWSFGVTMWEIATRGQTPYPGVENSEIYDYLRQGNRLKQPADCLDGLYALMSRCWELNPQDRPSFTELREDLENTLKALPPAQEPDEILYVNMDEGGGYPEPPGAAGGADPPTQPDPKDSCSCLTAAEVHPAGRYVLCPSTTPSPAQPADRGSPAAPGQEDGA
Experimental: as §1

ABL = ABL (Homo sapiens, UniProt P00519); test: Mobility shift assay, ABL; type: biochemical; settings: mean of two independent experiments, SD shown
Experimental: as §1

RET = RET (Homo sapiens, UniProt P07949); test: Mobility shift assay, RET; type: biochemical; settings: mean of two independent experiments, SD shown
Experimental: as §1

FLT3 = molecular target: T2, FLT3 (Homo sapiens, UniProt P36888); test: Mobility shift assay, FLT3; type: biochemical; settings: mean of two independent experiments, SD shown
T2 sequence (P36888 27-993): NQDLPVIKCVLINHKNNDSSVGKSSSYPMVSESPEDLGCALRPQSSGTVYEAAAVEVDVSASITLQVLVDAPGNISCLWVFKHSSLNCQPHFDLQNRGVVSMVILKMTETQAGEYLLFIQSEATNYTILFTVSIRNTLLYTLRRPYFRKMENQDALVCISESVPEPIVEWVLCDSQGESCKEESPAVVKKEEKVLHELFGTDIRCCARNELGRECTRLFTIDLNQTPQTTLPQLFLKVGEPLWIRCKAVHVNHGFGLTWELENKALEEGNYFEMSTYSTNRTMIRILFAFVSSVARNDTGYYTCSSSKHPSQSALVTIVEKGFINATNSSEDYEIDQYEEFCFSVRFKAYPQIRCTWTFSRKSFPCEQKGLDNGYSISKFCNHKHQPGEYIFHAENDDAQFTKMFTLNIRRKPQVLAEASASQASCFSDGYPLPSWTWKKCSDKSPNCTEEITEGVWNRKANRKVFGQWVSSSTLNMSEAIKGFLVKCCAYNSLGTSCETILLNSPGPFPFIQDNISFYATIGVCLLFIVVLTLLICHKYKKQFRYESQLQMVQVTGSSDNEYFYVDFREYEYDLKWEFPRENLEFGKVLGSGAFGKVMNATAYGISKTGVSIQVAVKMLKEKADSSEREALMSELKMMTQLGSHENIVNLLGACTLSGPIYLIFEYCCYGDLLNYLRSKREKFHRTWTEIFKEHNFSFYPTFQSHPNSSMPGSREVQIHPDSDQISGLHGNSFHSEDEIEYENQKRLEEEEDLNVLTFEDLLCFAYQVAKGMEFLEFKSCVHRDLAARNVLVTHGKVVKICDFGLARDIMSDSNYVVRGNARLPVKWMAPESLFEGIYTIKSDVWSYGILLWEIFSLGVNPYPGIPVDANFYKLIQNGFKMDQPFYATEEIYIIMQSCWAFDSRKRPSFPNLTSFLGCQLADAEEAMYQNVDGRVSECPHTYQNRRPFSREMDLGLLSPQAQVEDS
Experimental: as §1

Ron (MST1R) = settings: Figure 1; cited from earlier work
[2] = Homo sapiens, HT-29, average of three separate determinations

Sequence of HGFR (P08581 25-1390): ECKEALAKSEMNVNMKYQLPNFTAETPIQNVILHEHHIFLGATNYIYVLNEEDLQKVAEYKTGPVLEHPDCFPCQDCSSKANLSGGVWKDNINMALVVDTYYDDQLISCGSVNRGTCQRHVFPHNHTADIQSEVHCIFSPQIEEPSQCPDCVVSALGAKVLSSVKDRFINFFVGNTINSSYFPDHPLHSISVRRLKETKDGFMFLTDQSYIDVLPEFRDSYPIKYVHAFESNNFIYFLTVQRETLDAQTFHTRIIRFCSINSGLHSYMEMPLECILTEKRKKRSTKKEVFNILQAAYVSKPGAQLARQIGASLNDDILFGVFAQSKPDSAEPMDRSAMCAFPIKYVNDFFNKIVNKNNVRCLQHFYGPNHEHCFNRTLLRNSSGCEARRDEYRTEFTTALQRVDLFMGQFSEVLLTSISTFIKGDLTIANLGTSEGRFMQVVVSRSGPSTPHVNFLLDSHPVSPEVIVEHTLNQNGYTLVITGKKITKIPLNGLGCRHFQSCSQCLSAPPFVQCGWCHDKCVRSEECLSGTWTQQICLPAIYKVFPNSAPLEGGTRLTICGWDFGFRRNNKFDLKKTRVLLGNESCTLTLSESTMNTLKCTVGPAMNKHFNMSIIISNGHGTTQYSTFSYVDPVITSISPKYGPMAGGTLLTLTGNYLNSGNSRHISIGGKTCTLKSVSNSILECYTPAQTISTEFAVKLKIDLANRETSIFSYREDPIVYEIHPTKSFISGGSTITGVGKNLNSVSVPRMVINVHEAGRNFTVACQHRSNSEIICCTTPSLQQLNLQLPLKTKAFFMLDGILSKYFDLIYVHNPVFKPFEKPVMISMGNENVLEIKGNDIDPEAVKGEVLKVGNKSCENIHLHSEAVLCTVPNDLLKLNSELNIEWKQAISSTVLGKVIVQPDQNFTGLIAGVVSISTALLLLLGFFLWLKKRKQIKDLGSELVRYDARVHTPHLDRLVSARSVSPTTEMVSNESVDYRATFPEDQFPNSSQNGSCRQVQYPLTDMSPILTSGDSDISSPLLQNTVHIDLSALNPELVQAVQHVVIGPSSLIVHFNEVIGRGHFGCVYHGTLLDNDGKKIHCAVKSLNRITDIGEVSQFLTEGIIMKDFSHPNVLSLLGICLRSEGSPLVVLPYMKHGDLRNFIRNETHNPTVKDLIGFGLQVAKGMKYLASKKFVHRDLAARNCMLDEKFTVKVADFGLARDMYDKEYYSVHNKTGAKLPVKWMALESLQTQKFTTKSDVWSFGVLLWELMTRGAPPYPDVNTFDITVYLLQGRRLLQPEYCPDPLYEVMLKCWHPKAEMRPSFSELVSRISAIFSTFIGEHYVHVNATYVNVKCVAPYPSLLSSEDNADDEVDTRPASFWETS
Sequence of MST1R (Q04912 25-1400): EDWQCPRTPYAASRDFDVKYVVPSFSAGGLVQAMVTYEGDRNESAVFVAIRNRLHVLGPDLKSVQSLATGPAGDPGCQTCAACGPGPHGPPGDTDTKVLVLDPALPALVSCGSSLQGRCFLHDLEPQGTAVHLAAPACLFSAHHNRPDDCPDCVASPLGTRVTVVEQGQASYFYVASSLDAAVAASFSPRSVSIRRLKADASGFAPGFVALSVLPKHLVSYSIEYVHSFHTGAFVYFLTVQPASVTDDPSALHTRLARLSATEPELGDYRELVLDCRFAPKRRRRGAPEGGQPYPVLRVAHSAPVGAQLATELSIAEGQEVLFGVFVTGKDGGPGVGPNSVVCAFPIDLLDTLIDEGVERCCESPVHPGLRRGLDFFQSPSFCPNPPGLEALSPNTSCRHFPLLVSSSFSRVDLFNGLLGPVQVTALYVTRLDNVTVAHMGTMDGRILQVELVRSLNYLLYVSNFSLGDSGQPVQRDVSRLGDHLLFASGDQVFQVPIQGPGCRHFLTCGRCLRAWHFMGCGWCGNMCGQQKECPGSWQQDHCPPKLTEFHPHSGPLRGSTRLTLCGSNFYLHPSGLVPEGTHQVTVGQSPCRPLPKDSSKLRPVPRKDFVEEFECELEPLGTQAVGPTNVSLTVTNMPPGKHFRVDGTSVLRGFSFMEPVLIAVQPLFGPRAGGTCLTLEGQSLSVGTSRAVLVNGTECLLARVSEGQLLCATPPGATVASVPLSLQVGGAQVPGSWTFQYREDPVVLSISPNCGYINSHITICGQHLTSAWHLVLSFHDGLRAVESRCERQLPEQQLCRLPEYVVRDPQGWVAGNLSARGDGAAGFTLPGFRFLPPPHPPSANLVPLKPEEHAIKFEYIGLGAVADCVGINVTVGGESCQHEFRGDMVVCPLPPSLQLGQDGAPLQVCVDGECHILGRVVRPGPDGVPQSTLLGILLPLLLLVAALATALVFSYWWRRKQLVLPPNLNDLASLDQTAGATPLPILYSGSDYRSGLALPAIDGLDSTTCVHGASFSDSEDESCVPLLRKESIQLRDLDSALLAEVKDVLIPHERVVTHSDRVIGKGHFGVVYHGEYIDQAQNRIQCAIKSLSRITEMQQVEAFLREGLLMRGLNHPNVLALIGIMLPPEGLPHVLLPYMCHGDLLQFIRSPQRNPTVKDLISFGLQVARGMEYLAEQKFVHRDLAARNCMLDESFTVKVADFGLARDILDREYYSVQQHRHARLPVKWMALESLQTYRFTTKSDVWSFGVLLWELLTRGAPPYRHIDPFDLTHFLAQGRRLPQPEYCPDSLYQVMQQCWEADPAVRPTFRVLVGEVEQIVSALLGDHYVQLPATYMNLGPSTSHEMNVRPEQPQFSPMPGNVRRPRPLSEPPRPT
Sequence of RET (P07949 29-1114): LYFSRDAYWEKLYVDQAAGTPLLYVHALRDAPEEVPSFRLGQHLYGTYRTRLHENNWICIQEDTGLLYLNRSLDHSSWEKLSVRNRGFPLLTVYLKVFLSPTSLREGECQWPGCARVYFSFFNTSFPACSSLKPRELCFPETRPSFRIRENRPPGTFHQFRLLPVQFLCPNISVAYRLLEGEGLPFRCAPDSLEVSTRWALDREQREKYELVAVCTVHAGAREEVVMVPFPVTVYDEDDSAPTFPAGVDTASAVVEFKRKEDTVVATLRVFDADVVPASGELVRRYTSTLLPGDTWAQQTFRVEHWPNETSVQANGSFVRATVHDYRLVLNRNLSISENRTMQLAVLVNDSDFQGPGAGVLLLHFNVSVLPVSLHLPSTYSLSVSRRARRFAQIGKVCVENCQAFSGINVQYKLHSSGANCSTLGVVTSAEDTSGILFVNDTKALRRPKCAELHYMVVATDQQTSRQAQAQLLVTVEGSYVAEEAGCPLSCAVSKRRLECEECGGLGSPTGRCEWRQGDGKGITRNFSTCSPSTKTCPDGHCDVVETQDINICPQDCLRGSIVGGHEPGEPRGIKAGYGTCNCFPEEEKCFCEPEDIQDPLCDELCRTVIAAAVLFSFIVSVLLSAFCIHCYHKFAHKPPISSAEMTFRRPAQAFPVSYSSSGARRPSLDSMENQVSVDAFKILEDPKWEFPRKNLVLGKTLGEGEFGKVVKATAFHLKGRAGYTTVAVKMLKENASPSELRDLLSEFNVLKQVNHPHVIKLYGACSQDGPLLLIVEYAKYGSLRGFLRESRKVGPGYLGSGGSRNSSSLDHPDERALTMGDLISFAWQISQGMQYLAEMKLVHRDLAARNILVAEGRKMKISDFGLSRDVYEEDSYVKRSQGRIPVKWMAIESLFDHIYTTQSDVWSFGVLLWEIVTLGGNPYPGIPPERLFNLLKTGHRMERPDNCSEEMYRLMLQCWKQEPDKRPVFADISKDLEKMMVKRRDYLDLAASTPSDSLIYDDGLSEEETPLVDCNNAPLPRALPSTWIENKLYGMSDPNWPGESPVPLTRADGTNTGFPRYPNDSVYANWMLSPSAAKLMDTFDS
Sequence of c-Src (P12931 whole entry): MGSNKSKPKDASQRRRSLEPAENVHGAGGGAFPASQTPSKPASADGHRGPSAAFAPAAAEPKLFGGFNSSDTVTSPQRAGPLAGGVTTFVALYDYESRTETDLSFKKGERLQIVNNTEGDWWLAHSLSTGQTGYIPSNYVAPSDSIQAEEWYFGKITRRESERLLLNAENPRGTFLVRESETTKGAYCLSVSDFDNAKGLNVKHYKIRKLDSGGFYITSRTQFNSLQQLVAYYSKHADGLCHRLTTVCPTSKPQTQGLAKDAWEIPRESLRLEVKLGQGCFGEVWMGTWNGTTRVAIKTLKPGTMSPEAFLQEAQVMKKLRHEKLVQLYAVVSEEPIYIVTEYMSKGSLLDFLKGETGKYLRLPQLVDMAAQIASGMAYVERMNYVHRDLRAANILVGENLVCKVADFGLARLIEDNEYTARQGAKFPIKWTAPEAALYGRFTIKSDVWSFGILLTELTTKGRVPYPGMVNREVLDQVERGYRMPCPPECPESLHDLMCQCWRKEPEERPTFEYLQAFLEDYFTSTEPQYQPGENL

Molecule | IC50 (HGFR) | IC50 (HCT-116 cells) | IC50 (MST1R) | IC50 (COLO 205 cells; Homo sapiens, COLO 205) | IC50 (HT-29 cells; [2]) | IC50 [1] | further results
COc1cc2c(Oc3ccc(NC(=O)NN4C(=O)CSC4c4c(F)cccc4F)cc3F)ccnc2cc1OC1CCN(C(=O)CN(C)C)CC1 (stereo not drawn) [Compound 10d, 1–(2-(2,6-Difluorophenyl)-4-oxothiazolidin-3-yl)-3–(4-((7-((1-(dimethylglycyl)piperidin-4-yl)oxy)-6-methoxyquinolin-4-yl)oxy)-3-fluorophenyl)urea] | 0.9 µM | 2.4 ± 0.26 µM | 0.44 µM | 4.9 ± 0.38 µM | 2.9 ± 0.19 µM | > 10 µM | –
COc1cc2c(Oc3ccc(NC(=O)NN4C(=O)CSC4c4c(F)cccc4F)cc3F)ccnc2cc1OC1CCN(C(=O)CO)CC1 (stereo not drawn) [Compound 10h, 1–(2-(2,6-Difluorophenyl)-4-oxothiazolidin-3-yl)-3–(3-fluoro-4-((7-((1–(2-hydroxyacetyl)piperidin-4-yl)oxy)-6-methoxyquinolin-4-yl)oxy)phenyl)urea] | 0.22 µM | – | 0.16 µM | 0.85 ± 0.073 µM | 6.5 ± 0.43 µM | > 10 µM | –
CCN(CC)C(=O)N1CCC(Oc2cc3nccc(Oc4ccc(NC(=O)NN5C(=O)CSC5c5c(F)cccc5F)cc4F)c3cc2OC)CC1 (stereo not drawn) [BC2021-104511-15i, 4-((4-(4-(3-(2-(2,6-difluorophenyl)-4-oxothiazolidin-3-yl)ureido)-2-fluorophenoxy)-6-methoxyquinolin-7-yl)oxy)-N,N-diethylpiperidine-1-carboxamide, reference compound] | 0.27 µM | 4.8 ± 0.44 µM | 0.11 µM | 0.72 ± 0.065 µM | 0.79 ± 0.058 µM | – | –
COc1cc2c(Oc3ccc(NC(=O)NN4C(=O)CSC4c4c(F)cccc4F)cc3F)ccnc2cc1OC1CCN(C(=O)COC(C)=O)CC1 (stereo not drawn) [Compound 10g, 2–(4-((4–(4-(3–(2-(2,6-Difluorophenyl)-4-oxothiazolidin-3-yl)ureido)-2-fluorophenoxy)-6-methoxyquinolin-7-yl)oxy)piperidin-1-yl)-2-oxoethyl acetate] | 0.18 µM | 4.8 ± 0.44 µM | 0.11 µM | 0.59 ± 0.045 µM | 6.9 ± 0.47 µM | – | –
COCC(=O)N1CCC(Oc2cc3nccc(Oc4ccc(NC(=O)NN5C(=O)CSC5c5c(F)cccc5F)cc4F)c3cc2OC)CC1 (stereo not drawn) [Compound 10b, 1–(2-(2,6-Difluorophenyl)-4-oxothiazolidin-3-yl)-3–(3-fluoro-4-((6-methoxy-7-((1–(2-methoxyacetyl)piperidin-4-yl)oxy)quinolin-4-yl)oxy)phenyl)urea] | 0.18 µM | 3.7 ± 0.34 µM | 0.085 µM | 0.31 ± 0.021 µM | 3 ± 0.24 µM | > 10 µM | IC50 (c-Src): 0.69 ± 0.057 µM; IC50 (VEGFR-2): 2.36 ± 0.18 µM; IC50 (PDGFRβ): 1.2 ± 0.095 µM; IC50 (AXL): 1.5 ± 0.15 µM; IC50 (ABL): 3.28 ± 0.26 µM; IC50 (RET): 1.52 ± 0.14 µM; IC50 (FLT3): > 10 µM
CNC(=O)c1cc(Oc2ccc(NC(=O)Nc3ccc(Cl)c(C(F)(F)F)c3)c(F)c2)ccn1 [Regorafenib, reference compound] | – | 8.2 ± 0.75 µM | – | > 10 µM | 8.49 µM | – | –
COc1cc2c(Nc3ccc(NC(=O)NN4C(=O)CSC4c4c(F)cccc4F)cc3F)ccnc2cc1OC1CCN(CC(N)=O)CC1 (stereo not drawn) [Compound 10i, 2–(4-((4-((4–(3-(2–(2,6-Difluorophenyl)-4-oxothiazolidin-3-yl)ureido)-2-fluorophenyl)amino)-6-methoxyquinolin-7-yl)oxy)piperidin-1-yl)acetamide] | – | > 10 µM | – | – | > 10 µM | – | –
CNC(=O)CN1CCC(Oc2cc3nccc(Oc4ccc(NC(=O)NN5C(=O)CSC5c5c(F)cccc5F)cc4F)c3cc2OC)CC1 (stereo not drawn) [Compound 10c, 2–(4-((4–(4-(3–(2-(2,6-Difluorophenyl)-4-oxothiazolidin-3-yl)ureido)-2-fluorophenoxy)-6-methoxyquinolin-7-yl)oxy)piperidin-1-yl)-N-methylacetamide] | 0.14 µM | 5.9 ± 0.53 µM | 0.072 µM | 0.44 ± 0.038 µM | 4.1 ± 0.27 µM | – | –
Cn1cc(-c2cnc3ccc4ccc(CS(=O)(=O)NCc5ccccn5)cc4c(=O)c3c2)cn1 [MK-8033, 1-[3-(1-Methyl-1H-pyrazol-4-yl)-5-oxo-5H-benzo[4,5]cyclohepta[1,2-b]pyridin-7-yl]-N-(pyridin-2-ylmethyl)methanesulfonamide] | – | – | – | – | – | – | IC50 (Ron (MST1R)): 0.007 µM
CCOc1ccn(-c2ccc(F)cc2)c(=O)c1C(=O)Nc1ccc(Oc2ccnc(N)c2Cl)c(F)c1 [BMS-777607] | – | – | – | – | – | – | IC50 (Ron (MST1R)): 0.0018 µM
CNC(=O)c1c(C)oc2cc(Oc3ncnc4cc(OC)c(OC)cc34)ccc12 [Fruquintinib, reference compound] | – | 2.2 ± 0.17 µM | – | > 10 µM | 1.57 µM | – | –
COc1cc2c(Oc3ccc(NC(=O)NN4C(=O)CSC4c4c(F)cccc4F)cc3F)ccnc2cc1OC1CCN(CC(=O)N2CCOCC2)CC1 (stereo not drawn) [Compound 10f, 1–(2-(2,6-Difluorophenyl)-4-oxothiazolidin-3-yl)-3–(3-fluoro-4-((6-methoxy-7-((1–(2-morpholino-2-oxoethyl)piperidin-4-yl)oxy)quinolin-4-yl)oxy)phenyl)urea] | 0.14 µM | 2.6 ± 0.27 µM | 0.078 µM | 0.42 ± 0.034 µM | 1.9 ± 0.11 µM | > 10 µM | –
2–(4-((4–(4-(3–(2-(2,6-Difluorophenyl)-4-oxotetrahydrothiophen-3-yl)ureido)-2-fluorophenoxy)-6-methoxyquinazolin-7-yl)oxy)piperidin-1-yl)acetamide [Compound 19] | – | – | – | – | – | – | IC50 (COLO 205 cells): 5.3 ± 0.47 µM; IC50 (HT-29 cells; average of three separate determinations): 8.6 ± 0.67 µM

Reference: publication PMC9448386, “Discovery of novel conjugates of quinoline and thiazolidinone urea as potential anti-colorectal cancer agent” (Journal of Enzyme Inhibition and Medicinal Chemistry, 2022)
